Drawing on patent publication US20240383911A1, “AZAINDAZOLE MACROCYCLE COMPOUNDS AND USES THEREOF” (BROADENBIO CO., LTD, priority 2021, published 2024), this text covers IC50 for three compounds.

In one experiment the target is T1, FLT3 (Homo sapiens, UniProt P36888).
T1 sequence (P36888 27-993): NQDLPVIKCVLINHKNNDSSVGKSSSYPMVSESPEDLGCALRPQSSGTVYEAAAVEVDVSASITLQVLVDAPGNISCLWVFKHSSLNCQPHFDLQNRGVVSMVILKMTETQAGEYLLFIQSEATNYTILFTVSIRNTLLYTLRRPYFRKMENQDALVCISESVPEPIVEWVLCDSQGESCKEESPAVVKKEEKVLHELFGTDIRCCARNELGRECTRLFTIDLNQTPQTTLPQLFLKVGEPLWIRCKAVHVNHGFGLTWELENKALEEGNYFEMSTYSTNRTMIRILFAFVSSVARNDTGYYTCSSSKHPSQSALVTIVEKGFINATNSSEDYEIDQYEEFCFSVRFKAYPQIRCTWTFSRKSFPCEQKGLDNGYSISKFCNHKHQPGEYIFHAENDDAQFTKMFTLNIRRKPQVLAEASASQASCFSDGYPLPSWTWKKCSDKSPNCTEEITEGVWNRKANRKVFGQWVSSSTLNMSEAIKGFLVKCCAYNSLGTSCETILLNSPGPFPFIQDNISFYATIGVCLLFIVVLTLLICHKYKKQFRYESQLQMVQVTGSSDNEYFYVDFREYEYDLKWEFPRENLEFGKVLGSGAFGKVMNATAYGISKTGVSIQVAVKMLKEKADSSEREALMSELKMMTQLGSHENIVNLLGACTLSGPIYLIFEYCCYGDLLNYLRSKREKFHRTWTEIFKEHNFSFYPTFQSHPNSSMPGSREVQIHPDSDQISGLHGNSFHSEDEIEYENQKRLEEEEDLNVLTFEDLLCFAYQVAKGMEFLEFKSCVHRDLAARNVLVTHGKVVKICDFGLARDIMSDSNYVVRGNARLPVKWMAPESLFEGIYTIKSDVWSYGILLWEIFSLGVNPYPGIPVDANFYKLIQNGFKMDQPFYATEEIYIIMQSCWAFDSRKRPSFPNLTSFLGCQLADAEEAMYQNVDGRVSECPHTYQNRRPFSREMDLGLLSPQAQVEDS
Kind of experiment: FLT3 kinase activity inhibition test (HTRF). It is filed as biochemical. Conditions: read-out: IC50, inhibitory effects on FLT3 kinase activity. On the procedure:
(§1) Tested compounds: compounds prepared in the Examples of this invention.
(§2) Prepare compound stock solution: dissolve the test compound in 100% DMSO to make a 10 mM stock solution. Dilute the stock solution of the test compound by 5 times with 100% DMSO, make a 4-fold equal dilution in a 96-well dilution plate, add 1 μL of the compound to 39 μL of kinase reaction buffer (1×kinase buffer, 5 mM MgCl2, 1 mM DTT), and shake on a microplate shaker for 20 minutes. 4×Positive control (4 μL of positive compound solution of the starting concentration, add 196 μL of kinase buffer) and 4×negative control (4 μL of 100% DMSO, add 196 μL of kinase buffer).
(1) Use 1×kinase reaction buffer to prepare 2.5×FLT3 kinase solution (160 μM), transfer 2 μL of the kinase solution to the 384 reaction plate, and add 1 μL of the test compound solution of gradient concentration to the 384 reaction plate (Greiner, Cat #784075), centrifuge for 1 minute (1000 rpm), and incubate at 25° C. for 10 minutes.
(§3) (2) Use 1×kinase reaction buffer to prepare 2.5×TK-substrate-biotin (2.5 μM) and 2.5×ATP (2.5 μM), mix well, and add 2 μL of the TK-substrate-biotin/ATP solution to the 384 reaction plate, centrifuge for 30 seconds (1000 rpm), and incubate at 25° C. for 40 minutes.
(§4) (3) Use HTRF detection buffer to prepare 2×Sa-XL 665 (125 nM) and 1×TK-antibody-Cryptate. Add 5 μL of a mixture of Sa-XL 665 and TK-antibody-Cryptate solutions to each well, centrifuge for 30 seconds (1000 rpm), and react at room temperature for 1 hour.
(§5) (4) The fluorescence signal is read using a Biotek multi-function plate reader, and the IC50 (half inhibitory concentration) of the compound is obtained using a four-coefficient nonlinear fitting formula.
(In general: TR-FRET usually uses a lanthanide donor and a delayed reading to cut background.)

The target of the next experiment is KDR (Homo sapiens, UniProt P35968). Put plainly: KDR kinase activity inhibition test (HTRF). The following applies: read-out: IC50, inhibitory effects on KDR kinase activity. It is filed as biochemical. On the procedure:
as §1, §2
(1) Use 1×kinase reaction buffer to prepare 2.5×KDR kinase solution (250 μM), transfer 2 μL of the kinase solution to the 384 reaction plate, and add 1 μL of the test compound solution of gradient concentration to the 384 reaction plate (Greiner, Cat #784075), centrifuge for 1 minute (1000 rpm), and incubate at 25° C. for 10 minutes.
as §3, §4, §5

Another experiment has as its system MV-4-11 cells. Put plainly: Detection of MV-4-11 cell activity (CellTiter-Glo). The following applies: Homo sapiens, MV4-11, 120 h, 5 days, CTG, read-out: IC50, inhibitory effects on MV-4-11 cell activity. It is filed as cell-based. On the procedure: The CellTiter-Glo (CTG) luminescence method was used to detect the effect of compounds on the activity of MV-4-11 cells.
Tested compounds: compound prepared in the Examples of the present invention.
Add 100 μL containing 20,000 MV-4-11 (human myeloid monocytic leukemia cells, from the Cell Bank of the Chinese Academy of Sciences, Cat. No. SCSP-5031) cell suspension to 96-well flat-bottom clear-bottomed cell plates (Corning, Cat #3603), and then add 100 μL of cell culture medium containing a series of concentrations of the compound to be tested, with a total volume of 200 μL per well. The final gradient concentrations of the compounds were 500 nM, 125 nM, 31.25 nM, 7.813 nM, 1.953 nM, 0.488 nM, 0.122 nM, 0.031 nM, and 0.008 nM, and the final DMSO content was 0.5%. Set cells with the cell culture medium containing 0.5% DMSO but without compounds as the 100% control; set the culture medium wells without cells as 0% background control. Incubate the cell plate in a humidified incubator at 37° C. and 5% CO2 for 5 days. After 5 days, take out the cell plate, centrifuge (1000 rpm) for 5 minutes, remove and discard 100 μL supernatant, add 100 μL CTG reagent (Promega, Cat #G7572) to each well, shake at room temperature for 10 minutes to promote cell lysis, and incubate at room temperature for 30 minutes to stabilize the luminescence signal. Use a microplate reader (Molecular Device, i3X) to read the Luminescent fluorescence value, use GraphPad Prism 5.0 software to analyze the original data, use nonlinear S-curve regression to fit the data to obtain the dose-effect curve (cell survival rate %), and calculate the IC50 value.
(In general: ATP-based viability assays read luminescence as a measure of living cells.)

Chain of KDR (P35968 20-1356): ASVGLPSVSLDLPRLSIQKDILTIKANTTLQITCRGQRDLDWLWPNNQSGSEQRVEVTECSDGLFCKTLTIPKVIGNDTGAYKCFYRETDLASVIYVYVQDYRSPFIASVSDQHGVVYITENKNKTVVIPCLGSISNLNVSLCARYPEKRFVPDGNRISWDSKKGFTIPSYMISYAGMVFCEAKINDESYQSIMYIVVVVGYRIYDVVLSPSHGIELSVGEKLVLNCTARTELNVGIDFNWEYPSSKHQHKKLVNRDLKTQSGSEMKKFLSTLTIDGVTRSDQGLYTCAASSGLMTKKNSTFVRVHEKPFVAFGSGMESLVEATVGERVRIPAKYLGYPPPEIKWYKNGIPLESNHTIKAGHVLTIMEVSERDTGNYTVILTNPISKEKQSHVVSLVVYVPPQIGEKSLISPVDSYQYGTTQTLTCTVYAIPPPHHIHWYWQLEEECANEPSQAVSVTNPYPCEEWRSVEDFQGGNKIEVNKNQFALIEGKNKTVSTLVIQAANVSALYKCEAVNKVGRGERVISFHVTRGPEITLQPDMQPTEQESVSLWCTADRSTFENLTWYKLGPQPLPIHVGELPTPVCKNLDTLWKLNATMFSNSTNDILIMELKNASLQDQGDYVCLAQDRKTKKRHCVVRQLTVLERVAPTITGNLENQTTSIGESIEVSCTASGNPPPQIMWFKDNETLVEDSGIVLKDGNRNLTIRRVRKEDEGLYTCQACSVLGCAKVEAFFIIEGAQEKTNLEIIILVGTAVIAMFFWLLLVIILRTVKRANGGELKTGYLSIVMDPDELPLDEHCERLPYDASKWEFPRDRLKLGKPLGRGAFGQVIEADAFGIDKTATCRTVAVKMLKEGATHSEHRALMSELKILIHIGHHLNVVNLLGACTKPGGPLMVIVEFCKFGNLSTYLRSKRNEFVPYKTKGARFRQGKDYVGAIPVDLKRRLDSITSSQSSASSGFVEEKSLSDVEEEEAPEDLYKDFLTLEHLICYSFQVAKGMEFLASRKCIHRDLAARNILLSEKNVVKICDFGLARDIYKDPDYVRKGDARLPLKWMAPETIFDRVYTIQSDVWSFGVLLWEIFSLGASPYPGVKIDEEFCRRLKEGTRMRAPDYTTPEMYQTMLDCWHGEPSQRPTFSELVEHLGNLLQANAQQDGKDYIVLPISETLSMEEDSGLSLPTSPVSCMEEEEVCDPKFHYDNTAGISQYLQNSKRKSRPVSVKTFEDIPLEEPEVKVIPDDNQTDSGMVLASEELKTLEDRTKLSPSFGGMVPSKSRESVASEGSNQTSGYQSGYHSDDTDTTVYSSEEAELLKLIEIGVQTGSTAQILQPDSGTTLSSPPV

As a reminder, the IC50 is the concentration needed to halve the response being measured. For the compound `CN1CCN(c2ncc3cc2OCCCOc2cccc(F)c2-c2cc4c-3n[nH]c4cn2)CC1` [Compound 3, 16-fluoro-5-(4-methylpiperazin-1-yl)-7,11-dioxa-4,19,22,23-tetraazapentacyclo[16.5.2.1^2,6.0^12,17.0^21,24]hexacosa-1(23),2(26),3,5,12,14,16,18,20,24-decaene], the figures for the IC50 at FLT3, on KDR and in the experiment with MV-4-11 cells were 5 to 50 nM, 5 to 50 nM and 32 nM, respectively.

In the case of `CN1CCN(c2ccc3cc2OCCCOc2cccc(F)c2-c2cc4c-3n[nH]c4cn2)CC1` [Compound 6, 16-fluoro-5-(4-methylpiperazin-1-yl)-7,11-dioxa-19,22,23-triazapentacyclo[16.5.2.1^2,6.0^12,17.0^21,24]hexacosa-1(23),2(26),3,5,12,14,16,18,20,24-decaene], the IC50 on FLT3 is ≤ 5 nM; at KDR, ≤ 5 nM; in the experiment on MV-4-11 cells it was 3.8 nM.

Turning to `CN1CCN(c2ccc3cc2OCCOCc2cccc(F)c2-c2cc4c-3n[nH]c4cn2)CC1` [Compound 9, 16-fluoro-5-(4-methylpiperazin-1-yl)-7,10-dioxa-19,22,23-triazapentacyclo[16.5.2.1^2,6.0^12,17.0^21,24]hexacosa-1(23),2(26),3,5,12,14,16,18,20,24-decaene], the half-maximal inhibitory concentration (IC50) on FLT3 was ≤ 5 nM; on KDR it was ≤ 5 nM; in the experiment on MV-4-11 cells it was 7 nM.
